This is an account of results in US8778643B2, “Methods for increasing lipid levels and producing triacylglycerols in algae” (priority 2012, dated 2014).

“Also recorded” adds a separate entry of the source. Where two headings read alike, the source gives them in different places.

In data set [1] the test system is Phaeodactylum tricornutum. Nature of the data set: 500 mL batch culture: growth, dry weight and lipid extract (gravimetric). The data set is classed as cell-based. The note with it: 500 mL batch culture.
Procedure: (§1) Batch cultures were grown in 500 mL Pyrex media bottles with stirring and air bubbling (homemade manifold with Petco air pump, 2-4% CO2). Incoming air was sterile filtered by Polyvent 4 disposable filters (Whatman, Kent, UK). […] To minimize bacterial contamination, all equipment and materials were autoclaved and media was added to flask in a Purifier Vertical Clean bench (Labconco, Kansas City, Mo.). […] The amount of DMSO is standardized for all experiments to 0.4%.
(§2) For all compound cultures, the 2 mL DMSO stock solution was added to media (without algae) first and mixed well. Control cultures were grown without DMSO. DMSO controls consisted of 0.04-1.0% DMSO. After the addition of algae and media, the container was plugged with a bug stopper vented closure cap and mixed thoroughly. Absorbance is measured immediately for Day 0 analysis. Afterward, absorbance was measured every 1-2 days with a cuvette (1 mL volume) on the Thermo Scientific Genesys 10S V is Spectrophotometer (ThermoFisher, San Jose) at 680 nm.
(§3) Batch cultures were also repeated in triplicate and compared to a control culture grown at the same time. Algae were harvested and lipids were extracted for gravimetric analysis.
(§4) The nonpolar algal extracts were harvested from 500 mL cultures when indicated on growth curves, a minimum of 3 days into stationary phase.
(§5) Cell density was monitored by measuring absorbance at 680 nm every 1-2 days.
(§6) 500-mL cultures were harvested 6 days into stationary phase based on absorbance values. Cells were concentrated by centrifugation and lyophilization to remove water. Nonpolar lipids were extracted by sonication and solvent (chloroform-methanol and PBS buffer). […] Changes in lipid levels for batch cultures were determined by crude lipid extract mass.
Data set [2] relates to Nannochloropsis salina. The data set is described as above. It is filed as cell-based.
Procedure: as §1, §2, §3
Cultures were harvested at day 6 in stationary phase. Cultures were pelleted, lyophilized, and extracted side-by-side. The experiment was performed in triplicate.
The nonpolar algal extracts were harvested from 500 mL cultures when indicated on growth curves, a minimum of 3 days into stationary phase. […] Cells were crushed and nonpolar lipids were extracted by sonication (Fisher Scientific Model 120 Sonic Dismembrator, ThermoFisher, San Jose) for 1 minute in chloroform, followed by chloroform-methanol extractions, washed with PBS butter, and dried under vacuum.^55-60 The crude non-polar algae extracts were then analyzed by ^1H Nuclear Magnetic Resonance (^1H NMR) for verification of TAG presence and examination of the purity of the extract (determination of level of chlorophyll).
as §5, §6
Data set [3] has as its system Nannochloropsis oculata. Described as above. The data set is classed as cell-based.
Procedure: as §1, §2, §3, §4, §5, §6
For data set [4], the system named is Nannochloris sp. The data set is described as above. The conditions noted are these: 500 mL batch culture. The data set is classed as cell-based.
Data set [5] has as its system Nannochloropsis oculata. Nature of the data set: Lipid composition of batch culture extracts (fatty acid saturation / PUFA by 1H NMR, MALDI-TOF, GC/MS). The data set is classed as cell-based.
Procedure: The nonpolar algal extracts were harvested from 500 mL cultures when indicated on growth curves, a minimum of 3 days into stationary phase. […] Cells were crushed and nonpolar lipids were extracted by sonication (Fisher Scientific Model 120 Sonic Dismembrator, ThermoFisher, San Jose) for 1 minute in chloroform, followed by chloroform-methanol extractions, washed with PBS butter, and dried under vacuum.^55-60 The crude non-polar algae extracts were then analyzed by ^1H Nuclear Magnetic Resonance (^1H NMR) for verification of TAG presence and examination of the purity of the extract (determination of level of chlorophyll). The extracts were then divided for analysis; one part for transesterification, one part to save as crude extract, and one part for SPE separation and MALDI-TOF analysis of TAGs.
Triacylglycerols can be isolated by solid-phase extraction (SPE) with 500 mg silica SPE cartridges (Silicycle, Quebec). The nonpolar extract is dissolved in 300 μL hexanes, and loaded on the SPE cartridge primed with hexanes. A mixture of 80:20:1 hexanes/diethyl ether/acetic acid was used as mobile phase to elute the TAGs.^61 SPE removes any chlorophyll in this process. Residual polar fraction containing polar lipids and chlorophyll was obtained by elution with acetone. All extracts and TAG fractions were dried under vacuum and stored under argon in amber vials at −20° C. before spectroscopic analysis. After SPE, the purified TAG fraction was reanalyzed with ^1H NMR spectroscopy for TAG characterization.
The TOF was in Reflectron mode with laser intensity from 5500-6500 Volts. Each acquisition consisted of 2500 shots with a focus mass of 900 Da, and a scan range of m/z 400-1100. Multiple acquisition scans were performed at different laser intensities to determine optimal conditions. Samples for the MALDI-TOF were diluted to 5 mg/mL in hexane, and spotted in the fast-evaporation method in a 1:2 ratio with DHB (2,5-dihydroxybenzoic acid) as the matrix. Re-spotting with methanol allowed for the matrix and sample to mix without hexane interactions, and allowed for better crystal formation. All samples on MALDI plate were allowed to dry before MS analysis. Data was normalized to base peak in all cases.
After the initial weight was recorded, the nonpolar extract set aside for transesterification was dissolved in 3.0 mL of 0.6 M sulfuric acid in methanol and stirred vigorously at 60° C. for 45 minutes.
Initial GC/MS temperature was 50° C. and end was 200° C. over at a one hour period for optimal FAME peak separation.
Peak assignment of fatty acids and their derivatives are based on NMR spectroscopic studies of previously reported algal lipid extracts^9 and comparison to standards such as olive oil (ACROS) and fatty acid mixtures.
We developed a quick and robust method to screen if the screened compound effect fatty acid saturation levels using ^1H NMR spectroscopy. The amount of saturated fatty acids (SFA), monounsaturated fatty acids (MUFAs), and polyunsaturated fatty acids (PUFAs) was determined using peak area ratios.
Calculated based on ^1H NMR integral ratios for the proton signals for the methyl group of PUFA components vs. the methyl groups of monounsaturated and saturated components.
Data set [6] concerns Nannochloropsis salina. The conditions noted are these: >0.8% v/v DMSO; microplates.
Data set [7] concerns Nannochloropsis oculata.
The next data set has as its system microalgae. Nature of the data set: Microplate assay (growth, Nile Red lipids), algae strain not stated.
The subject of data set [8] is Phaeodactylum tricornutum. Briefly: Microplate assay: growth (absorbance 680 nm) and intracellular lipids (Nile Red fluorescence). The data set is classed as cell-based. The conditions noted are these: P. tricornutum, 400 nM.
The subject of data set [9] is Nannochloris sp. Described as above. The data set is classed as cell-based. The note with it: 200 nM; initial microplate screen, relative to control.
[10] abbreviates: 0.4% by volume, 500 mL culture, day 6 in stationary phase.
[11] abbreviates: DMSO at 0.4% v/v, batch culture.
The mark [12] stands for this setting: N. oculata, DMSO average, harvested day 6 of stationary phase, n=3.

Source text for microalgae: Plates were originally run in triplicate, before replicates were increased to quadruplicate, along with a separate control plate to compare growth. Due to extensive evaporation in exterior wells over time, our unique algae plate layout was designed to use the 60 interior wells out of 96 wells for the experiment. The 36 outer wells were filled with Millipore water and media to prevent evaporation and edge effects in the inner algae wells, as well as serve as blanks. The 60 wells with algae contained a total volume of 251 μL (100 μL of media+DMSO compound stock +150 μL dilute algae stock). For 20 μM and 200 nM assay plates, 10 mM compound stock in DMSO is diluted into plate maps of 5 mM and 50 μM assay stocks, respectively. […] Plates were parafilmed during growth to limit the amount of evaporation that can occur. Plates were numbered, and numerically ordered to ensure they got the same shaker space.
The shakers are kept at a constant shaking of 150 rpm. Ambient temperature is 22±3° C. Absorbance (680 nm and 600 nm) and fluorescence (excitation at 430 nm→emission at 630 nm) was taken every day on the Synergy HT Plate Reader (Biotek, Vermont, USA), in order to monitor cell density and chlorophyll production in algae over the growth cycle.
The algae were grown to stationary phase, as indicated by a plateau in the growth rate over 1-4 days. The growth plateau should occur for more than one day to allow for appropriate lipid levels to accumulate; 3 days in stationary phase is typical of the assay. The assay plates of N. salina, P. tricornutum, and N. oculata are grown for 14 days and then analyzed with Nile Red by the method outlined below. Nannochloris sp. takes 21 days to reach stationary phase. The algae lipid levels can be analyzed at any stage in the growth cycle by the Nile Red Method outlined below.
Clear microplates were used to give maximum light exposure for growth of microalgae during the assay. […] Intracellular lipid levels were analyzed using the Nile Red protocol at approximately 3 days at stationary phase to allow for lipid accumulation.
To a microplate containing algae (in media) grown to stationary phase, 25 μL of 1:1 (v/v) DMSO/media was added manually using a multichannel pipet and the microplate was vortexed with an IKA® MS 3 Digital plate shaker for 1 minute. Then, 25 μL of Nile red dye (1 mg/mL solution in acetone) was added manually to the microplate using a multichannel pipet. Immediately after Nile Red dye was added to all wells, the microplate was vortexed for ˜30 seconds and inserted into the Biotek Synergy HT Multi-mode Microplate Reader, which had been preheated to 40° C. The microplate was allowed to sit inside the instrument avoiding ambient light for 10 minutes of staining time before analysis.

As for `C[S+](C)[O-]` [DMSO, dimethylsulfoxide], the “effect on growth and lipid levels” value was “No significant changes; also recorded: decrease in growth and lipid production; also recorded: no effect, or a small decrease in growth and lipid production” in data set [1]; “increased growth and lipid levels” in the data set on Nannochloropsis salina [2] (500 mL batch culture); “increased growth and lipid levels” in the data set on Nannochloropsis oculata [3] (500 mL batch culture); “No significant changes; also recorded: no effect, or a small decrease in growth and lipid production” in the data set on Nannochloris sp. [4]. For the same compound, the Absorbance at harvest in the data set on Nannochloropsis salina [2] (setting [10]) was 1.50 ± 0.13; with Nannochloropsis oculata [3] (N. oculata, DMSO (0.4%), n=3), 1.776 ± 0.060; in the data set with Nannochloropsis oculata [3] (N. oculata, DMSO (1%), n=2) it was 1.827 ± 0.288; in the data set with Nannochloropsis oculata [3] (setting [12]) it was 1.83. The “Dry weight” value in the data set with Nannochloropsis salina [2] (setting [10]) stood at 429.90 ± 109.74 mg; in the data set on Nannochloropsis oculata [3] (N. oculata, DMSO (0.4%), n=3), 409.2 ± 105.6; with Nannochloropsis oculata [3] (N. oculata, DMSO (1%), n=2) it was 280.4 ± 88.0; with Nannochloropsis oculata [3] (setting [12]), 283.27 mg. The “Extract Weight” value with Nannochloropsis salina [2] (setting [10]) turned out to be 92.83 ± 6.37 mg; in the data set with Nannochloropsis oculata [3] (N. oculata, DMSO (0.4%), n=3), 67.2 ± 7.8; with Nannochloropsis oculata [3] (N. oculata, DMSO (1%), n=2), 47.2 ± 11.0; with Nannochloropsis oculata [3] (setting [12]) it was 56.83 mg. The figures for the “Number of Cells” value with Nannochloropsis salina [2] (setting [10]) and in the data set on Nannochloropsis oculata [3] (setting [12]) were 1.44E+09 and 2.32E+09, respectively. For the same compound, the “Recovered Weight” value is on record as 393.17 ± 112.84 mg in the data set on Nannochloropsis salina [2] (setting [10]) and 267.27 mg with Nannochloropsis oculata [3] (setting [12]). For the same compound, the “increase in lipid levels” value is recorded as 25% with Nannochloropsis salina [2] (setting [11]); “up to 50%” with Nannochloropsis salina [2] (DMSO, batch culture (Table 18)); 39% in the data set on Nannochloropsis oculata [3] (setting [11]); 75% with Nannochloropsis oculata [7] (0.4% DMSO, microplate screen). Further, the “increase in lipid levels relative to control without DMSO” value in the data set with Nannochloropsis oculata [3] (1.0% DMSO, batch cultures) was determined as 78%. Also, the “SFAs (%)” value with Nannochloropsis oculata [5] (N. oculata, 1%, n=1, Normal 0 ± 1) is on record as 7%. In addition, in the data set on Nannochloropsis oculata [5] (N. oculata, 1%, n=1, Normal 4 ± 7), the “MUFAs (%)” value is 32%. Further, the “n3 PUFAs (%)” value in the data set with Nannochloropsis oculata [5] (N. oculata, 1%, n=1, Normal 28 ± 4) is recorded as 17%. Moreover, the “PUFAs (%)” value with Nannochloropsis oculata [5] (N. oculata, 1%, n=1, Normal 96 ± 7) is given as 61%. The “effect on growth and cell density” value in the data set with Nannochloropsis salina [6] is “detrimental effect on growth and cell density”; with Nannochloropsis oculata [7] (>0.8% v/v DMSO, microplates), “detrimental effect on growth and cell density”. Moreover, the “increase in cell density” value with Nannochloropsis oculata [7] (0.4% DMSO, microplate screen) was 57%. For the same compound, the “effect on growth (deviation from control growth)” value in the data set with microalgae (0.4% v/v DMSO) is no more than 10%. The “effect on growth” value was “did not show a toxic or detrimental effect on the growth” in the data set on microalgae (less than 0.4% v/v DMSO, microplates, any of the four microalgae strains) and “detrimental growth effects” in the data set on microalgae (≧1% v/v DMSO).

Take `CC1CC(C)C(=O)C(C(O)CC2CC(=O)NC(=O)C2)C1` (centres unmarked) [Cycloheximide, 3-[2-(3,5-Dimethyl-2-oxocyclohexyl)-2-hydroxyethyl]glutarimide]: the “% Lipid increase based on Nile red fluorescence intensity” value in data set [8] (added at exponential phase, t=day 7) stood at 408%. For the same compound, the “% Increase based on Nile Red Fluorescence Intensity” value in [8] (added during exponential phase) came out at 408%. In the data set on Nannochloris sp. [9], the “Absorbance (percent increase)” value is recorded as −12.4% and the “Nile Red percent increase” value amounted to 178.1%. Moreover, the “SFAs (% of total lipids)” value with Nannochloropsis oculata [5] (40 nM (exponential), 1H NMR, Normal 24) is reported as 39 % of total lipids. The “n3 PUFAs (% of UFAs)” value in the data set with Nannochloropsis oculata [5] (40 nM (exponential), 1H NMR, Normal 37) was 33 % of UFAs. The “All other PUFAs and MUFAs (% of UFAs)” value in the data set with Nannochloropsis oculata [5] (40 nM (exponential), 1H NMR, Normal 63) is 67 % of UFAs. For the same compound, the “UFAs (% of total lipids)” value with Nannochloropsis oculata [5] (40 nM (exponential), 1H NMR, Normal 76) is reported as 61 % of total lipids. Further, in the data set with Nannochloropsis oculata [7] (4.6-41.2 nM, dose-response microplate screen), the “Nile Red percent increase” value is 87-96%. Moreover, the “Nile Red Fluorescence % Increase” value with Nannochloropsis oculata [7] (N. oculata, compounds tested at 200 nM, initial screening, p<0.05) was 137.9%. Besides, the “effect on lipid levels” value in the data set on microalgae (added in the initial phase, <1 μM, greater than 1 μM) was “minimal increase in lipid levels”. The “effect on cell growth” value with microalgae (added in the initial phase, <1 μM, greater than 1 μM, all four species) was “inhibitory effect on cell growth”.
